{"source": "patent US5607967A", "about": "“Treatment of alzheimer's disease with 5-(tetradecyloxy)-2-furan carboxylic acid” (Merck & Co., Inc., priority 1994, dated 1997)", "key": {"[1]": {"assay": "Toxicity to transfected COS cells in the transcription assay", "type": "cell-based", "conditions": "monkey, GR/PPAR transcription assay, read-out: Concentrations toxic to the cells", "procedure": "The ligand transcription assay mediated by GR/PPAR in COS cells was performed as described in Example 4. The cells were treated with TOFA and Cerulenin at 0.1, 1, 10 and 100 μM. Concentrations of cerulenin above 10 μM were toxic to the cells."}, "[2]": {"target": "T1, GR/PPAR chimeric receptor (Mus musculus, UniProt P23204)", "T1 construct": "COS cells, MMTV-luciferase", "T1 sequence (P23204 1-468)": "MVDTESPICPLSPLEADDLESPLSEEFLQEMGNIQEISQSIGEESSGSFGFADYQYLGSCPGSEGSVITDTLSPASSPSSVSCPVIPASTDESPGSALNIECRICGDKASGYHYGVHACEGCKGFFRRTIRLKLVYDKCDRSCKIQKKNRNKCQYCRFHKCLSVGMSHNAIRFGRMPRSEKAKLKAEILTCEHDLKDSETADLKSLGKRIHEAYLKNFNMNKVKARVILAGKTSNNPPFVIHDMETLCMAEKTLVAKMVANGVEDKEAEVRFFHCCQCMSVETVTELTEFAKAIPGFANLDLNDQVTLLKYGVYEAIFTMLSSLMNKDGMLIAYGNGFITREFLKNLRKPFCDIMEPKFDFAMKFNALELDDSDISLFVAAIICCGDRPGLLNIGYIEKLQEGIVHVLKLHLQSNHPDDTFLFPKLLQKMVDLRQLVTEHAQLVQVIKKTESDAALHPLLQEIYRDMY", "T1 sequence (P06537 1-792 partner)": "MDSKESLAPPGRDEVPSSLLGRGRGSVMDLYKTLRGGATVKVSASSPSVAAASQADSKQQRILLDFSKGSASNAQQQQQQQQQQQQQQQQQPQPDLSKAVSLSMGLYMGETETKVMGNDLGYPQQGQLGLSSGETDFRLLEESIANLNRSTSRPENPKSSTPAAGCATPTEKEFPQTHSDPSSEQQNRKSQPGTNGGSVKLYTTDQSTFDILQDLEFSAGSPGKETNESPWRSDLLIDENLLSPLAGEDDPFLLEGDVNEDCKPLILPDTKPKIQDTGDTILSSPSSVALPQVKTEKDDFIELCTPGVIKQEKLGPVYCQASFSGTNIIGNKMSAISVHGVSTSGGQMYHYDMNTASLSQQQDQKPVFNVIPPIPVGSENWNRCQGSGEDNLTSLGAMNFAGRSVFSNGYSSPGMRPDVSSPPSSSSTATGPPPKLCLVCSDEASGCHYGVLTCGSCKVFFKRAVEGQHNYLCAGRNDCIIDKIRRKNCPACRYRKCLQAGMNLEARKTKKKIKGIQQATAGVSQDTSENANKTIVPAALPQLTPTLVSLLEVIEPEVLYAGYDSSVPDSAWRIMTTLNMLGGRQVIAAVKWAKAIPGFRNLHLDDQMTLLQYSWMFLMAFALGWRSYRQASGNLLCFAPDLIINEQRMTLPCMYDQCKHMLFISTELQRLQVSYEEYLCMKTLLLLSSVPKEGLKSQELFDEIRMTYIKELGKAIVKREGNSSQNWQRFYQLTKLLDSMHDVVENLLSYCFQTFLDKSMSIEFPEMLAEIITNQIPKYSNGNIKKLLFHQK", "assay": "Ligand dependent transcription assay, GR/PPAR chimeric receptor with MMTV-luciferase reporter", "type": "cell-based", "procedure": "Similar hybrid receptors GR/NER, GR/NUC and GR/PPAR, in identical expression plasmid backgrounds were prepared essentially as described for the construction of the GR/mPPAR and GR/NUC chimeric receptors in Schmidt et al., \"Identification of a new member of the steroid hormone receptor superfamily that is activated by a peroxisome proliferator and fatty acids,\" Mol. Endocrinol., 6(10):1634-41, 1992, and in Boie et al., \"Enantioselective activation of the peroxisome proliferator-activated receptor\", J. Biol. Chem. 268(8):5530-4, 1993.\nBriefly, the amino terminal portion of the mouse glucocorticoid receptor (mGR), that includes the DNA binding domain was fused to the putative ligand binding domains of the nuclear receptor NER, hNUC-I (Schmidt et al., 1992), mPPAR (Issenmann and Green, 1990) to form the respective chimeric receptors GR/NER, GR/NUC and GR/PPAR. The GR/NER chimeric receptor was constructed as described for the GR/NUC and GR/PPAR hybrid receptors (Schmidt et al., 1992; Boie et al). The cDNA sequences coding for amino acids Arg^155 and Glu^156 of the NER receptor were converted to the Xho I restriction site, that was later used for the ligation to the GR cDNA sequences that coded for the DNA binding domain. Thus, converting amino acid residues Arg^155 and Glu^156 of NER receptor to amino acid residues Ser^155 and His^156.\nThe ligand transcription assay mediated by GR/PPAR in COS cells was performed as described in Example 4. The cells were treated with TOFA and Cerulenin at 0.1, 1, 10 and 100 μM."}, "GR/NER chimeric receptor": {"tested_on": "GR/NER chimeric receptor", "assay": "Activation of GR/NER in CV1 cells (luciferase)", "conditions": "for Fold of stimulation GR/NER, Control: without dopamine", "procedure": "The ligand dependent transcription assays were performed as described in Example 4, using CV1 cells in place of COS cells. The transfected CV1 cells were treated with dopamine, TOFA, or with a combination of TOFA and dopamine at the indicated concentrations and tested for luciferase activity.\nCV1 cells were co-transfected with the MMTV-Luciferase reporter gene (pJA358) and the GR/NER chimeric receptor as described in Example 4. The cells were treated with increasing amount of the dopamine D1 receptor antagonist SCH 23390 with or without 50 μM […] dopamine."}, "[3]": {"conditions": "chronic treatment, medial cholinergic pathway lesions; cited from earlier work"}, "[4]": {"tested_on": "Dopamine D1 receptor antagonist (SCH 23390) induced catalepsy", "assay": "SCH 23390 induced catalepsy (Bar method)", "type": "in vivo, rat", "conditions": "carrier pretreatment, 24 h later 0.5 mg/kg SCH23390", "procedure": "Rats were pretreated with 0.4 mg/kg TOFA or with carrier (S.C.). Twenty-four hours later, the rats were challenged with 0.5 mg/kg SCH23390, a Dopamine D1 antagonist, and the duration of catalepsy was monitored.\nCatalepsy was determined by a modification of the Bar method (Undie and Friedman, 1988). A steel bar, 1.1 cm in diameter and 50 cm long, was suspended at a height of 10 cm above the working surface. Three sides of the bench around the bar were walled off with brown cardboard, and the linings on the bench surface were selected to be of the same color with the cardboard walls. The animal's hind limbs were freely placed on the bench, the fail laid out to the back, and the forelimbs placed over the bar. The length of time a rat stayed up on the bar was noted up to a preset cut-off point of 120 s. The time was counted off upon observing any of the following actions: (1) the animal came off, placing its two forepaws on the bench, (2) the animal climbed onto or over the bar with both hind limbs, (3) the animal initiated locomotion along or around the bar. Subsequently, time readings were translated into scores by awarding a score of 1 for each successfully completed 5 s on the bar. For each observation time, catalepsy scores were averaged for all the animals in a group to give the Mean Score of the group at that observation time. Further, the scores for each animal at all the observation times were added to give the total score for that animal. The mean of this last group of numbers was called the Mean Total Score of the group.\nCatalepsy scores were analyzed by computer in accordance with the statistical procedures outlined by Winer, B. J.: Statistical principles in experimental design. McGraw-Hill, New York, pp. 10-428, 1971. Generally, for a given set of comparisons, observations were subjected to an appropriate analysis of variance followed by two-tailed Dunnett or Student's t-tests to detect differences between treatment groups."}}, "data": [{"smiles": "C/C=C/C/C=C/CCC(=O)[C@H]1O[C@H]1C(N)=O", "note": "[Cerulenin, cerulenin, reference compound]", "values": [{"measurement": "MCC", "setting": "[1]", "result": "> 10", "unit": "µM"}, {"measurement": "Expression mediated by GR/PPAR", "setting": "[2]", "result": "did not stimulate transcription"}, {"measurement": "fold induction at 0.1 µM", "setting": "[2]; 0.1 μM, COS cells, Table 2, read-out: Fold of stimulation GR/PPAR", "result": "1.03 ± 0.12"}, {"measurement": "fold induction at 1 µM", "setting": "[2]; 1.0 μM, COS cells, Table 2, read-out: Fold of stimulation GR/PPAR", "result": "1.13 ± 0.05"}, {"measurement": "fold induction at 10 µM", "setting": "[2]; 10.0 μM, COS cells, Table 2, read-out: Fold of stimulation GR/PPAR", "result": "0.58 ± 0.11"}]}, {"smiles": "CN1CCc2cc(Cl)c(O)cc2C(c2ccccc2)C1", "note": "(single isomer, unassigned) [SCH-23390, 8-chloro-2,3,4,5-tetrahydro-3-methyl-5-phenyl-1H-3-benzazepin-7-ol hemimaleate]", "values": [{"measurement": "Effect on transcription mediated by GR/NER in CV1 cells", "setting": "GR/NER chimeric receptor", "result": "stimulated the transcription"}, {"measurement": "Effect on inhibition of luciferase expression caused by dopamine", "setting": "GR/NER chimeric receptor; 50 μM dopamine", "result": "can reverse the inhibition of luciferase expression"}, {"measurement": "Fold of stimulation GR/NER, Dopamine (50 μM)", "setting": "GR/NER chimeric receptor; SCH-23390 0.1 μM with 50 μM dopamine", "result": "0.59 ± 0.06", "unit": "fold"}, {"measurement": "Fold of stimulation GR/NER, Control", "setting": "GR/NER chimeric receptor; SCH-23390 0.1 μM", "result": "1.32 ± 0.15", "unit": "fold"}, {"measurement": "Fold of stimulation GR/NER, Dopamine (50 μM)", "setting": "GR/NER chimeric receptor; SCH-23390 1.0 μM with 50 μM dopamine", "result": "0.55 ± 0.09", "unit": "fold"}, {"measurement": "Fold of stimulation GR/NER, Control", "setting": "GR/NER chimeric receptor; SCH-23390 1.0 μM", "result": "1.22 ± 0.11", "unit": "fold"}, {"measurement": "Fold of stimulation GR/NER, Dopamine (50 μM)", "setting": "GR/NER chimeric receptor; SCH-23390 10.0 μM with 50 μM dopamine", "result": "0.83 ± 0.12", "unit": "fold"}, {"measurement": "Fold of stimulation GR/NER, Control", "setting": "GR/NER chimeric receptor; SCH-23390 10.0 μM", "result": "1.64 ± 0.38", "unit": "fold"}, {"measurement": "Fold of stimulation GR/NER, Dopamine (50 μM)", "setting": "GR/NER chimeric receptor; SCH-23390 100 μM with 50 μM dopamine", "result": "2.61 ± 0.86", "unit": "fold"}, {"measurement": "Fold of stimulation GR/NER, Control", "setting": "GR/NER chimeric receptor; SCH-23390 100 μM", "result": "2.38 ± 0.19", "unit": "fold"}, {"measurement": "Radial-arm maze performance", "setting": "[3]", "result": "reversed the lesion-induced impaired performance"}, {"measurement": "Catalepsy Duration", "setting": "[4]", "result": "3.1 ± 1.3", "unit": "s"}]}]}
